Data as given in patent publication US20220024882A1, “NOVEL TUMOR ANTIGEN BINDING AGENTS AND USES THEREOF” (ITM Isotopen Technologien München AG, priority 2018, published 2022).
“And” between values parts separate entries of the source, which are not always exact repeats. Identical values can stand only once.

Tests used:
[1] = tested on: PC-3 PIP/flu tumor-bearing mice; assay: Biodistribution study in PC-3 PIP/flu tumor-bearing mice; assay type: in vivo, athymic nude Balb/c mice; details: for PC-3 flu Tumor: PSMA-negative tumor xenograft; for PC-3 flu Tumor / PC-3 PIP Tumor: mice; for PC-3 PIP Tumor: PSMA-positive tumor xenograft
Method: (§1) In vivo experiments were approved by the local veterinarian department and conducted in accordance with the Swiss law of animal protection. Mice were obtained from Charles River Laboratories, Sulzfeld, Germany, at the age of 5-6 weeks. Female, athymic nude Balb/c mice were subcutaneously inoculated with PSMA-positive PC-3 PIP cells (6×10^6 cells in 100 μL Hank's balanced salt solution (HBSS) with Ca^2+/Mg^2+) on the right shoulder and with PSMA-negative PC-3 flu cells (5×10^6 cells in 100 μL HBSS Ca^2+/Mg^2+) on the left shoulder. Two weeks later, the tumors reached a size of about 80-300 mm^3 suitable for the performance of the biodistribution studies.
Biodistribution studies were performed 12-15 days after PC-3 PIP/flu tumor cell inoculation. […] The radioligands were injected in a lateral tail vein in a volume of 100-200 μL. Mice were euthanized at different time points after injection (p.i.) of the radioligands. Selected tissues and organs were collected, weighed and measured using a γ-counter. The results were decay-corrected and listed as a percentage of the injected activity per gram of tissue mass (% IA/g) (Table 3 and 4).
Mice were obtained from Charles River Laboratories, Sulzfeld, Germany, at the age of 5-6 weeks. Female, athymic nude BALB/c mice were subcutaneously inoculated with PSMA-positive PC-3 PIP cells (6×10^6 cells in 100 μL Hank's balanced salt solution (HBSS)) on the right shoulder and with PSMA-negative PC-3 flu cells (5×10^6 cells in 100 μL HBSS) on the left shoulder. Two weeks later, the tumors reached a size of about 80-300 mm^3 suitable for the performance of the biodistribution and imaging studies.
Biodistribution studies were performed 12-15 days after PC-3 PIP/flu tumor cell inoculation. ^177Lu-Ibu-sPSMA was diluted in 0.9% NaCl containing 0.05% bovine serum albumin (BSA) to prevent adhesion to the vial and syringe material. The radioligand was injected in a lateral tail vein in a volume of 100 μL. Mice were euthanized at different time points after injection (p.i.) of the radioligand. Selected tissues and organs were collected, weighed and measured using a γ-counter. The results were decay-corrected and listed as a percentage of the injected activity per gram of tissue mass (% IA/g) (Table 6, FIG. 18).

[2] = Whole-body activity measurements, non-tumor bearing mice; assay type: in vivo; details: 4 h after injection, 25 MBq, 1 nmol i.v.
Method: All albumin-binding radioligands (molar activity: 25 MBq/nmol) were diluted in 0.9% NaCl containing 0.05% BSA and i.v. injected into non-tumor bearing mice (25 MBq, 1 nmol, 100 μL). The mice were measured in a dose calibrator at various time-points up to 56 h p.i. The radioligands were compared with previously obtained data from ^177Lu-PSMA-617.

[3] = tested on: PSMA-positive PC-3 PIP tumor-bearing mice; assay: In vivo therapy study; design: species or system athymic nude BALB/c mice; details: for first mouse of group euthanized / median survival / TGDI5 (tumor growth delay index, 5-fold increase of tumor size): 1 nmol per mouse; for TGDI5 (tumor growth delay index, 5-fold increase of tumor size): controls = 1.0
Method: Mice were obtained from Charles River Laboratories, Sulzfeld, Germany, at the age of 5-6 weeks. Female, athymic nude BALB/c mice were subcutaneously inoculated with PSMA-positive PC-3 PIP cells (4×10^6 cells in 100 μL Hank's balanced salt solution (HBSS)) on the right shoulder. Six days later, the tumors reached a size of about 30-160 mm^3 suitable for the performance of the in vivo therapy study. Mice were euthanized when a predefined endpoint criterion was reached or when the study was finalized at Day 84. Endpoint criteria were defined as (i) body weight loss of >15%, (ii) a tumor volume of >800 mm^3 (iii) a combination of body weight loss of >10% and a tumor volume of >700 mm^3 or (iv) signs of unease and pain or a combination thereof.
Six days after subcutaneous inoculation of 4×10^6 PC-3 PIP tumor cells inoculation, three groups with statistically similar body weight and tumor volumes were intravenously injected. One group was injected with only the vehicle (saline containing 0.05% bovine serum albumin (BSA); Group A; n=6), and another two groups with ^177Lu-Ibu-DAB-PSMA (Group B: 2 MBq, 1 nmol (n=6) and Group C: 5 MBq, 1 nmol (n=6)) at Day 0 of the therapy study (Table 7). The monitoring of mice and the assessment of the therapy study was conducted as described by Eiber et al., J. Nucl. Med., 2017, 58 (Suppl. 2) 67S-76S). In short, the mice were monitored by measuring body weight and tumor size every second day over a period of 12 weeks. The relative body weight (RBW) was defined as [BWx/BW0], where BWx is the body weight in grams at a given Day x and BW0 is the body weight in grams at Day 0. The tumor dimensions were determined by measuring the longest tumor axis (L) and its perpendicular axis (W) with a digital caliper. The tumor volume (V) was calculated according to the equation [V=0.5×(LW^2)]. The relative tumor volume (RTV) was defined as [TVx/TV0], where TVx is the tumor volume in mm^3 at a given day x, and TV0 is the tumor volume in mm^3 at Day 0.
The efficacy of the radionuclide therapy was expressed as the tumor growth delay (TGDx), which was calculated as the time required for the tumor volume to increase x-fold over the initial volume at Day 0. The tumor growth delay index [TGDIx=TGDx(T)/TGDx(C)] was calculated as the TGDx ratio of treated mice (T) over the TGDx average of control mice (C) for a 5-fold (x=5, TGD5) increase of the initial tumor volume. The median survival was calculated using GraphPad Prism software (version 7). Survival of mice was assessed using Kaplan-Meier curves to determine median survival of mice of each group using Graph Pad Prism software (version 7).

[4] = Whole-body activity measurements, tumor-bearing mice; assay type: in vivo, athymic nude Balb/c mice; details: 4 h p.i., 30 MBq, 1 nmol i.v., activity right after injection = 100%
Method: as §1, with “imaging” for “biodistribution”
The single radioligands (specific activity: 30 MBq/nmol) were diluted in 0.9% NaCl containing 0.05% bovine serum albumin (BSA) and i.v. injected into PC-3 PIP/flu tumor bearing mice (30 MBq, 1 nmol, 100 μL) for SPECT/CT imaging purposes. The mice were measured in a dose calibrator at 4 h, 24 h, 48 h and 72 h p.i., respectively.

[5] = 4 h p.i., PC-3 PIP/flu tumor-bearing mice
[6] = 24 h p.i., PC-3 PIP/flu tumor-bearing mice

CC(C)Cc1ccc(C(C)C(=O)NC(CCN)C(=O)NCCCCC(NC(=O)CN2CCN(CC(=O)O)CCN(CC(=O)O)CCN(CC(=O)O)CC2)C(=O)NCC2CCC(C(=O)NC(Cc3ccc4ccccc4c3)C(=O)NCCCCC(NC(=O)NC(CCC(=O)O)C(=O)O)C(=O)O)CC2)cc1 (stereo not shown) [^177Lu-Ibu-DAB-PSMA, metal not drawn]
Blood [1, 5]: 3.66 ± 0.45 % IA/g
Bone [1, 5]: 0.62 ± 0.08 % IA/g
Heart [1, 5]: 1.32 ± 0.10 % IA/g
Intestines [1, 5]: 0.71 ± 0.05 % IA/g
Kidneys [1, 5]: 19.4±1.84 % IA/g
Liver [1, 5]: 1.50 ± 0.12 % IA/g
Lung [1, 5]: 2.40 ± 0.31 % IA/g
Muscle [1, 5]: 0.54 ± 0.09 % IA/g
Salivary glands [1, 5]: 0.86 ± 0.38 % IA/g
Spleen [1, 5]: 1.14 ± 0.11 % IA/g
Stomach [1, 5]: 0.62 ± 0.12 % IA/g
Tumor-to-blood [1, 5]: 18.2 ± 2.69
Tumor-to-kidney [1, 5]: 3.01 ± 0.49
Tumor-to-liver [1, 5]: 44.6 ± 8.41
PC-3 flu Tumor ([1]; 4 h p.i.): 1.19 ± 0.30 % IA/g
PC-3 PIP Tumor ([1]; 4 h p.i.): 66.2 ± 11.0 % IA/g
Bone [1, 6]: 0.09 ± 0.02 % IA/g
Heart [1, 6]: 0.10 ± 0.01 % IA/g
Intestines [1, 6]: 0.11 ± 0.03 % IA/g
Kidneys [1, 6]: 6.00±0.68 % IA/g
Liver [1, 6]: 0.56 ± 0.10 % IA/g
Lung [1, 6]: 0.21 ± 0.03 % IA/g
Muscle [1, 6]: 0.05 ± 0.01 % IA/g
Salivary glands [1, 6]: 0.56 ± 0.37 % IA/g
Spleen [1, 6]: 0.32 ± 0.03 % IA/g
Stomach [1, 6]: 0.18 ± 0.13 % IA/g
Tumor-to-blood [1, 6]: 337 ± 40.4
Tumor-to-kidney [1, 6]: 8.88 ± 0.99
Tumor-to-liver [1, 6]: 98.3 ± 21.1
PC-3 flu Tumor ([1]; 24 h p.i.): 0.17 ± 0.01 % IA/g
PC-3 PIP Tumor ([1]; 24 h p.i.): 52.4 ± 2.35 % IA/g
whole-body retained activity [2]: 18%
first mouse of group euthanized ([3]; 2 MBq): 26 days
median survival ([3]; 2 MBq): 34 days
TGDI5 (tumor growth delay index, 5-fold increase of tumor size) ([3]; 2 MBq): 1.6 and 1.6 ± 0.4
average relative body weight at the time of euthanasia ([3]; 5 MBq per mouse): 1.06±0.10
day on which the two mice with tumor regrowth reached the endpoint ([3]; 5 MBq per mouse): 70 days and 82 days
mice of the group in which the tumors disappeared entirely ([3]; 5 MBq per mouse, n=6): four
mice still alive at the end of the study at Day 84 ([3]; 5 MBq per mouse, n=6): four
first mouse of group euthanized ([3]; 5 MBq): 70 days
TGDI5 (tumor growth delay index, 5-fold increase of tumor size) ([3]; 5 MBq): not defined
median survival ([3]; 5 MBq, study end Day 84): undefined
whole-body retention of radioactivity [4]: 17%
